Experimental data taken from US20080145858A1, “DETECTION AND IDENTIFICATION OF TOXICANTS BY MEASUREMENT OF GENE […]” (priority 2003, published 2008).

Legend:
[1] = tested on: Xenopus laevis embryos (stage 8 and stage 15); assay: Verification of microarray analysis by RT-PCR with biotinylated primers; format: in vivo; conditions: for expression of genes of ESTs PBX0135A08 and PBX013409: microarray and RT-PCR in agreement
Excerpt: Up-regulation of the clone Nos. PBX0135A08 and PBX0134E09 (underlined and shaded genes in Table 1, Panel A) were verified by RT-PCR of the genes. […] The DNA product obtained by RT-PCR using biotinylated primers of clone No. PBX0135A08 was separated by 1% agarose gel electophoresis and visualized by ethidium bromide staining (FIG. 3, Panel A). The DNA fragments were blotted to a nitrocellulose membrane and visualized by a streptavidin-horseradish peroxidase/ECL system (FIG. 3, Panel B). Though a single band for each reaction was visible in the ethidium bromide stained gel (FIG. 3, Panel A), multiple bands were obtained by the ECL system (FIG. 3, Panel B). When the biotin-labeled DNA in the gel was depurinated and denaturated by treatment with 0.25 M HCl followed by 1.5 M NaCl/0.56 N NaOH, the major 380 bp species were efficiently transferred and similar pattern to that observed using the ECL method was obtained (FIG. 3, Panel C). The effect was also observed with RT-PCR of clone No. PBX0134E09. mRNA levels of clones No. PBX0135A08 and No. PBX013409 increased after PMA treatment at stage 8 (Table 2).
In FIG. 3 the DNA products were obtained from 2 independent RT-PCR reactions using mRNA from untreated blastula stage 8 embryos (lanes 1 and 2), PMA-treated cleavage stage 8 embryos (lanes 3 and 4), untreated neurula stage 15 embryos (lanes 5 and 6), and PMA-treated neurula stage 15 embryos (lane 7 and 8). The 380 bp biotin-labeled DNA fragments were separated by gel electrophoresis on 1% agarose gel without further treatment (panel A and B) or following depurination and denaturation (panel C). In panel A, the DNA was detected by ultraviolet light following ethidium bromide staining. In panels B and C, the DNA was transferred to nitrocellulose membrane and detected by streptavidin-horseradish peroxidase ECL.

[2] = tested on: Xenopus laevis embryos; assay: Embryonic morphology after PMA treatment; format: in vivo
Method: Embryos were sorted for successful cleavage to 2 cells (1.5 hours after fertilization), split into groups for subsequent treatment (triplicate treatments per each experimental group) and visually monitored for normal embryonic morphology. Rates of abnormal morphology were recorded for each group. Embryos at stage 8 were obtained after incubation of the fertilized embryos at 23° C. for 5 hours. PMA (100 ng/ml) or DMSO (0.01%, solvent used to dissolve PMA) was added to the embryos 2 hours after fertilization. […] Embryos at stage 15 were obtained after incubation of the fertilized embryos at 18° C. for 30 hours (the condition produced stage 15 embryos identical to embryos obtained at 23° C. for 10 hours). PMA or DMSO was added to the embryos 21 hours after fertilization.

Structure (SMILES): CCCCCCCCCCCCCC(=O)O[C@@H]1[C@@H](C)[C@@]2(O)[C@@H](C=C(CO)C[C@]3(O)C(=O)C(C)=C[C@@H]23)[C@@H]2C(C)(C)[C@]12OC(C)=O [PMA, phorbol 12-myristate 12-acetate]
- expression of genes of ESTs PBX0135A08 and PBX013409 ([1]; cleavage embryos, stage 8): highly up-regulated
- expression of genes of ESTs PBX0135A08 and PBX013409 ([1]; embryos undergoing neurulation, stage 15): unaffected
- % increase of mRNA expression by RT-PCR ([1]; gene PBX0135A08, Stage 8): 260% of control
- % increase of mRNA expression by RT-PCR ([1]; gene PBX0135A08, Stage 15): no change
- % increase of mRNA expression by RT-PCR ([1]; gene PBX013409, Stage 8, not detected in control but strong band after PMA treatment): highly induced^b
- % increase of mRNA expression by RT-PCR ([1]; gene PBX013409, Stage 15): no change
- embryo morphology / developmental stage reached ([2]; 100 ng/ml added 2 hours after fertilization, 23° C. for 5 hours, untreated progressed to blastula): remained in a pre-blastula stage
- embryo morphology / developmental stage reached ([2]; added 21 hours after fertilization, 18° C. for 30 hours, untreated showed typical neurula): in a pre-neurula stage
